Laboratory results from patent US20230089949A1, “SMALL MOLECULES FOR TREATING AGE-RELATED RETINAL DISEASES” (University of Pittsburgh - Of the Commonwealth System of …, priority 2020, published 2023).

Key:
Aged Fischer 344 rats = assay: Histological analysis of retinal outer nuclear layer (ONL) in aged Fischer 344 rats (Example 1); type: in vivo, rat
Description: Aged Fischer 344 rats were treated with oral 8-AG (5 mg/kg/day for 6 weeks; drug delivered via the drinking water), or were a control, and the eyes of the rats were harvested for histological analysis of the retinal outer nuclear layer (ONL) and the results were compared with a corresponding histological analysis of young Fischer 344 rats (FIG. 8). With advance age, there is likely to be a loss of photoreceptors with associated thinning and eventual loss of the overlying ONL (see Schuman et al., Ophthalmology, 116:488-96.e2, 2009)
The orientation of each eye was randomly embedded and sectioned. The fixed eyes were placed in a histology processing cassette for serial alcohol based dehydration. Dehydrated eyes were embedded in paraffin, and retinal cross sections were cut at 6 μm thickness. Retinal cross sections near the optic nerve were stained by hematoxylin and eosin (H&E). Images of H&E-stained retinal cross sections were collected under 4× and 20× objectives. […]
In each retinal cross section image under the 20× objective, the outer nuclear layer (ONL) thickness was measured at 6 locations along the image to calculate the average ONL thickness. […]

aged F344 rat retinae [1] = assay: Retinal morphology (H&E, rhodopsin immunofluorescence) in F344 rat model of age-related photoreceptor degeneration (Example 2); type: in vivo
Description: To test the efficacy of 8-AG in photoreceptor degeneration, 8-AG was administered in two animal models including the F344 rat of age-related photoreceptor degeneration, and the Rho^P23H/+ knock-in mice of retinitis pigmentosa and examine the retinal morphology and function.
(§1) For treatment, female F344 rats were orally administered with 5 mg per kg body weight (bw) of 8-aminoguanine (8-AG) per day in the drinking water starting at 22-24 months of age for 8 weeks. Non-treated age-matched F344 rats and young adult F344 rats at 3-4 months of age were used as controls. RhoP^23H/+ mice were administered with 8-AG for 11 mg per kg bw per day by intraperitoneal injections starting from postnatal day (PND) 15 for five weeks. PBS treated Rho^P23H/+ and WT mice were used as controls.
Eyes were enucleated by a surgical scissor cutting around the eyeball. Each eye was opened with a cut at the cornea side of the limbus, cut horizontally at the edge of the cornea for a circle, corneas removed and lens isolated. Eyecups were incubated in freshly prepared 4% paraformaldehyde for 2 hr. Fixed eyecups were dehydrated sequentially in 5, 10, 20 and 40% sucrose solutions in phosphate buffered saline (PBS) for 30 min each at room temperature. Finally, eyecups were incubated in a mixture of 40% sucrose in PBS and O.C.T. compound (FisherScientific, Houston, Tex. USA) at 3:7 volume ratio overnight at 4° C. before they are embedded in the same mixed solution in an orientation-specific manner and frozen in liquid nitrogen-bathed isobutene. A microtome made twelve-micron retinal cross-sections at −18° C. and those containing the optic nerve head were applied onto a SUPERFROST™ glass slide (FisherScientific, Houston, Tex. USA). These slides were then used for IHC.
After rehydration and permeabilization in PBST for 15 min, retinal sections were incubated in 5% goat serum for 30 min, and then they were incubated with 5% goat serum containing the primary antibodies. […]

Rho^P23H/+ knock-in mice = assay: Retinal morphology and scotopic ERG in Rho P23H/+ knock-in mice of retinitis pigmentosa; type: in vivo, mouse; conditions: 11 mg per kg bw per day i.p. for five weeks from PND 15
Description: as §1
(§2) Electroretinogram (ERG): ERG was performed using the Celeris system (Diagnosys, Lowell, Mass., USA). Rats were placed in the dark overnight. During the ERG test, protect the rats from the light from the beginning to the finish of the scotopic test, only use the dim light to do the preparation in the dark room. Pupils were dilated with 1% tropicamide (Akorn, Lake Forest, Ill., USA) and 2.5% phenylephrine (Sigma). Rats were anesthetized with an intraperitoneal injection of ketamine at 80 mg/kg bw and xylazine at 7 mg/kg bw. Eyes were lubricated by a 0.3% hypromellose eye gel (Alcon, Fort Worth, Tex., USA). A heating pad was used to maintain body temperature at 37° C. Scotopic ERG responses of dark-adapted eyes to ten flashes from 0.0001 cd·s/m^2 to 100 cd·s/m^2 were recorded and averaged from three sweeps per flash intensity with inter-sweep intervals of 10 to 30 s. After exposed to 10 cd/m^2 illumination for 10 min, the photopic ERG responses were recorded from the light-adapted eyes in response to flashes from 0.01 cd·s/m^2 to 100 cd·s/m^2 in addition to a 10 cd/m^2 background light. P-values were calculated by a two-way ANOVA to determine the statistical significance between the response amplitudes in the 8-AG treated group and untreated group. Factor 1, treatment condition; and factor 2, flash intensity.
Retinal histology and H&E staining: To examine the structure of the aging rats' retinas treated with 8-AG, the rats were euthanized, their eyes removed, and fixed in 4% paraformaldehyde and 1% glutaraldehyde before paraffin sectioning. […]

aged F344 rat retinae [2] = assay: Immunoblots of protein markers of mitochondria function, oxidative stress and apoptosis in aged F344 rat retinae; type: in vivo
Description: A range of protein markers of mitochondria function and apoptosis was probed in the retinae of young, aged and 8-AG treated aged F344 rat retinae, as well as the mitochondrial superoxide dismutase 2 (SOD2), an enzyme protecting tissue from damage by ROS, using immunoblots. […] The fact that chronic 8-AG […] retinal levels of SOD2 is consistent with reduced retinal oxidative stress in 8-AG-treated aged rats.
as §1
Western Immunoblotting: The freshly isolated retinae were homogenized using Lysing Matrix D in a FASTPREP-24™ instrument (MP Biomedicals) in HBSS buffer (5 mM KCl, 0.3 mM KH2PO4, 138 mM NaCl, 4 mM NaHCO3, 0.3 mM Na2HPO4, 5.6 mM glucose, and 10 mM HEPES, pH 7.4) containing complete protease inhibitor cocktail (1 tablet/10 ml, Roche) and phosphatase inhibitor cocktail (MilliporeSigma, 1:100). After centrifugation (16200 g, 15 minutes at 4° C.), the membrane protein fraction was prepared by suspending the membrane pellets in lysis buffer containing 0.3M NaCl, 50 mM Tris-HCl (pH 7.6), and 0.5% Triton X-100, as well as the same concentration of protease inhibitors as above. The suspensions were incubated on ice and centrifuged (16200 g, 15 minutes at 4° C.). The protein concentrations of the combined supernatants were determined using the Pierce BCA protein assay (Thermo Fisher Scientific). Two μg of unheated total protein was loaded on a 4%-15% TGX Stain-Free SDS-PAGE gel (Bio-Rad). As a reliable loading control, total protein measurement per sample was determined using Bio-Rad Stain Free SDS-PAGE gel technology. UV-activated protein fluorescence was imaged on a ChemiDoc MP (Bio-Rad). The gel was electrotransferred to polyvinylidene fluoride membrane and immunoblotted with 1D4 anti-rhodopsin antibody (5 μg/mL). After washing in TBS-T, the membranes were incubated with secondary antibody, sheep anti-mouse HRP (Southern Biotech), developed using WESTERNBRIGHT® Quantum (Advansta), and imaged on a ChemiDoc MP (BioRad). The volume (intensity) of each protein species was determined and normalized to total protein using Image Lab software (Bio-Rad).

aged F344 rat retinae [3] = assay: Immunofluorescence of GFAP and CD68 in aged F344 rat retinae; type: in vivo; conditions: 5 mg/kg bw per day in drinking water for eight weeks from 22 months of age
Description: Glial cells are activated upon photoreceptor degeneration, and retinal immune response is thought to contribute to photoreceptor degeneration as the disease progresses. Activated macrophages were reported to not only scavenge dead cells, but also can phagocytose living photoreceptors (McMenamin et al. Prog. Retin. Eye Res. 70, 85-98, doi:10.1016/j.preteyeres. 2018.12.002 (2019)).
as §1
Eyes were enucleated by a surgical scissor cutting around the eyeball. Each eye was opened with a cut at the cornea side of the limbus, cut horizontally at the edge of the cornea for a circle, corneas removed and lens isolated. Eyecups were incubated in freshly prepared 4% paraformaldehyde for 2 hr. Fixed eyecups were dehydrated sequentially in 5, 10, 20 and 40% sucrose solutions in phosphate buffered saline (PBS) for 30 min each at room temperature. […]

aged F344 rat retinae [4] = assay: SD-OCT of ONL thickness in aged F344 rats, 0 vs 4 wks; type: in vivo
Description: (§3) The potent efficacy of 8-AG in preserving retinal morphology and function of the aged F344 rats and Rho^P23H/+ mice were shown in FIGS. 11A-11D and […].
Optical coherence tomography (OCT): To assess the 8-AG treatment on old F344 rats, ultrahigh-resolution SD-OCT (Bioptigen, Morrisville, N.C.) was performed for in vivo imaging of rats retinas. Pupils were dilated with 1% tropicamide (Akorn, Lake Forest, Ill., USA) and 2.5% phenylephrine (Sigma). Rats were anesthetized with an intraperitoneal injection of ketamine at 80 mg/kg bw and xylazine at 7 mg/kg bw. Eyes were lubricated by a 0.3% hypromellose eye gel (Alcon, Fort Worth, Tex., USA). A heating pad was used to maintain body temperature; the A scan/B scan ratio was set at 1200 lines. Five frames of OCT images scanned at 0° were acquired in the B-mode, averaged, and saved as pdf files. To measure changes to photoreceptors in the retinas assess the effect of 8-AG on retinal protection, the thickness of the ONL was measured along with the scanned SD-OCT image at 6 points from the temporal to nasal end of the retina. A graph of ONL thicknesses was plotted to obtain the means and standard error (SE) of the samples.

aged F344 rat retinae [5] = assay: Electroretinogram (ERG) of aged F344 rats, 0 vs 4 wks; type: in vivo; conditions: 5 mg/kg bw per day in drinking water; 4 wks vs 0 wk
Description: as §3, §2

Dahl salt-sensitive rats [6] = assay: Chronic effects of 8-AG in Dahl salt-sensitive rats on high salt diet (MRI, organ histology); type: in vivo, rat; conditions: high salt diet with 8AG for 40 days; independent veterinary pathology lab
Text: (§4) While the genetic loss of PNPase activity is toxic and results in a compromised immune system, partial inhibition of PNPase by pharmacological administration is safe. The chronic effects of 8-AG have been examined in Dahl salt-sensitive rats, which is a model of genetic hypertension that is exacerbated by providing a high salt diet. […] Next, organs from these animals were examined histologically by an independent veterinary pathology lab.

animals = assay: Observed toxicity in the animal experiments that were performed; type: in vivo
Text: as §4

Dahl salt-sensitive rats [7] = conditions: high salt diet with 8AG for 40 days; vs untreated high-salt control; cited from earlier work
[8] = 5 mg per kg bw per day in drinking water for 8 weeks from 22 months of age, central, equatorial and peripheral sites, vs untreated age-matched group
[9] = 5 mg/kg bw per day in drinking water from 24 months, 4 wks compared to before treatment

Nc1nc2[nH]c(N)nc2c(=O)[nH]1 [8-AG, 8-aminoguanine]
ONL preservation in retinal edges (Aged Fischer 344 rats; oral 8-AG 5 mg/kg/day for 6 weeks via drinking water, edge of old retinae, retinal edges with preserved ONL): 7 out of 8
ONL thickness, effect of treatment (2-way ANOVA) (Aged Fischer 344 rats; oral 8-AG 5 mg/kg/day for 6 weeks, treated vs untreated old rats, independent of retinal location): significant
ONL thickness (aged F344 rat retinae [1]; [8]): distinctively increased
OS/IS thickness (aged F344 rat retinae [1]; [8]): distinctively increased
Rhodopsin levels (immunofluorescence) (aged F344 rat retinae [1]; 5 mg per kg bw per day in drinking water for 8 weeks, vs untreated aged retinae): increased
ONL layer thickness (Rho^P23H/+ knock-in mice; H&E): thicker
scotopic ERG a-wave response (Rho^P23H/+ knock-in mice; vs vehicle control group): significantly higher
scotopic ERG b-wave response (Rho^P23H/+ knock-in mice; vs vehicle control group): significantly higher
retinal levels of SOD2 (aged F344 rat retinae [2]; chronic oral 8-AG 5 mg/kg for 8 wks, immunoblot, aged rats): decreased
Rhodopsin levels (immunoblot) (aged F344 rat retinae [2]; oral 8-AG 5 mg/kg for 8 wks, aged F344 retina): restored
retinal MFN2 levels (aged F344 rat retinae [2]; oral 8-AG 5 mg/kg for 8 wks, immunoblot): further increased
cleaved CASP3 (aged F344 rat retinae [2]; oral 8-AG 5 mg/kg for 8 wks, immunoblot, aged retinae): reduced
GFAP staining (aged F344 rat retinae [3]): did not affect
number of CD68+ cells (aged F344 rat retinae [3]): significantly reduced
ONL thickness, nasal side (SD-OCT) (aged F344 rat retinae [4]; [9]): slight increase
ONL thickness, temporal side (SD-OCT) (aged F344 rat retinae [4]; [9]): no change
ONL at sites where it had disappeared before treatment (SD-OCT) (aged F344 rat retinae [4]; single exemplary retina, 4 wks of treatment): reappeared
photopic b wave responses (aged F344 rat retinae [5]): did not affect
scotopic a-wave (aged F344 rat retinae [5]): significantly increased
scotopic b-wave (aged F344 rat retinae [5]): significantly increased
microscopic alterations in heart, kidney, liver, aorta, adrenal gland (histology) (Dahl salt-sensitive rats [6]): No treatment-related microscopic alterations
toxicity (animals): no observed toxicity
strokes in the cerebral cortex and subcortical areas (MRI) (Dahl salt-sensitive rats [7]): protected from strokes
